In patent publication US8389557B2, “Triazole derivatives useful as Axl inhibitors” (Rigel Pharmaceuticals, Inc., priority 2005, dated 2013) one finds IC50 data, which are given here for 29 molecules.

For the assay, the target named is T1, Axl (Homo sapiens, UniProt P30530).
T1 construct: endogenous in cells; host or cells: HeLa cells
T1 sequence (P30530 26-894): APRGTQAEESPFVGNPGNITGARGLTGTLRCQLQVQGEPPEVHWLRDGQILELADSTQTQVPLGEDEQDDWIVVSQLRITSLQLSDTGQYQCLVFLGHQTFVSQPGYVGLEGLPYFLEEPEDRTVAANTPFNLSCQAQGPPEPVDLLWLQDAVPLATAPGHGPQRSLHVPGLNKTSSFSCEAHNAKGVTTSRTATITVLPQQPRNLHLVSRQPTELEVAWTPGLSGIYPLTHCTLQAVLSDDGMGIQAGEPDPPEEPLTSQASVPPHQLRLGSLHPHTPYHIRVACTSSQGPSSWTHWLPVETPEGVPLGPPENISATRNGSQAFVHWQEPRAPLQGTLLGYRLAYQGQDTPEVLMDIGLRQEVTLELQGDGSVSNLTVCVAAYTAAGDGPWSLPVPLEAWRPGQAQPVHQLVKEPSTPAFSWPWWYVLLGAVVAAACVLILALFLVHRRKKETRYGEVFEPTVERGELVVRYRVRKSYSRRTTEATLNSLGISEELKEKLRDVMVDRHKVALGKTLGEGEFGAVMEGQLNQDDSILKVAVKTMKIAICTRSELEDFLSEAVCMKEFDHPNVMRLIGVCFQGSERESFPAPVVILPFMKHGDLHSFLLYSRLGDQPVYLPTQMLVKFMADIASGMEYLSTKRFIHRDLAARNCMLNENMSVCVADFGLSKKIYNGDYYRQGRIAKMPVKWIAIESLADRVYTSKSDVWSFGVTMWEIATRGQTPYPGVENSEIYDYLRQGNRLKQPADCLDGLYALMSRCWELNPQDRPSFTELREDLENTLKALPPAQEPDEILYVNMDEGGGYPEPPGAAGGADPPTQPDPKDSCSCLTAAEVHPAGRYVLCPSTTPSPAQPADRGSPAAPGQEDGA
The experiment in a line: Phospho-Akt in-cell Western assay (inhibition of Axl activity). Format: cell-based. In a few lines:
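HeLa cells on poly-L-lysine, starved 24 h in 0.5% FCS DMEM with Axl/Fc 500 ng/mL, pre-treated with compound 1 h at 37° C. Axl stimulated 5 min by anti-Axl/anti-mouse antibody cross-linking. Fixed cells probed with anti-phospho-Akt and HRP secondary, chemiluminescence read.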

The mark [1] stands for this setting: Table 3, Hela cells, Axl antibody cross-linking stimulation, phospho-Akt chemiluminescence.
The mark [2] stands for this setting: inhibition of Axl activity, Table 1.
Setting [3] is: inhibition of Axl activity, phospho-Akt in-cell Western assay, Table 1.
[4] abbreviates: Table 2, Hela cells, Axl antibody cross-linking stimulation, phospho-Akt chemiluminescence.
[5] abbreviates: Table 5, Hela cells, Axl antibody cross-linking stimulation, phospho-Akt chemiluminescence.

Under setting [1], `Nc1nc(Nc2ccc(OCCn3ccnc3)cc2)nn1C(=O)c1cc2ccccc2s1` [compound 379, 5-amino-1-(benzo[b]thiophen-2-yl)carbonyl-3-[4-[2-(imidazol-1-yl)ethoxy]phenylamino]-1H-1,2,4-triazole] displayed an IC50 of less than 1000 nM. The same measure, in the same setting: for `Nc1nc(Nc2ccc(OCCN3CC[C@H](F)C3)cc2)nn1C(=O)c1ccc2cc[nH]c2c1` [compound 388, 5-amino-1-(1H-indol-6-yl)carbonyl-3-[4-[2-((S)-3-fluoropyrrolidin-1-yl)ethoxy]phenylamino]-1H-1,2,4-triazole] the value was less than 1000 nM.

As for `Cc1ccc(C(=O)n2nc(Nc3ccccc3C)nc2N)cc1` [compound 144, 5-amino-3-[2-(methyl)phenylamino]-1-(4-(methyl)phenyl)carbonyl-1H-1,2,4-triazole], the IC50 under setting [2] is more than 20000 nM. Molecule `CC(C)(C)Oc1cccc(C(=O)n2nc(Nc3ccc(OCCCN4CCCC4)cc3)nc2N)c1` [compound #24, 5-Amino-3-[4-[3-(pyrrolidin-1-yl)propoxy]phenylamino]-1-(3-(tert-butoxy)phenyl)carbonyl-1H-1,2,4-triazole] showed an IC50 under setting [3] of less than 1000 nM.

Under setting [4], `CC(C)Oc1ccc(C(=O)n2nc(N)nc2Nc2ccc(OCCN3CCCCC3)cc2)cc1` [compound 47, 3-amino-1-(4-(iso-propoxy)phenyl)carbonyl-5-[4-[2-(piperidin-1-yl)ethoxy]phenylamino]-1H-1,2,4-triazole] returned a concentration for half-maximal inhibition (IC50) of more than 20000 nM. Under setting [2], `Nc1nc(Nc2ccc3c(c2)OCCO3)nn1C(=O)c1ccc(F)cc1` [compound 100, 5-amino-3-(1,4-benzodioxan-6-yl)amino-1-(4-(fluoro)phenyl)carbonyl-1H-1,2,4-triazole] showed an IC50 of more than 20000 nM. On to `Nc1nc(Nc2ccc(OCCN3CCCC3)cc2)nn1C(=O)c1ccc2c(c1)OCO2` [compound #16, 5-Amino-1-(1,3-benzodioxol-5-yl)carbonyl-3-[4-[2-(pyrrolidin-1-yl)ethoxy]phenylamino]-1H-1,2,4-triazole], for which, under setting [3], the IC50 was less than 1000 nM. Under setting [2], `CC(C)Oc1ccc(C(=O)n2nc(Nc3cccc(OC4CCCC4)c3)nc2N)cc1` [compound 116, 5-amino-3-[3-(cyclopentoxy)phenylamino]-1-(4-(iso-propoxy)phenyl)carbonyl-1H-1,2,4-triazole] gave an IC50 of more than 20000 nM.

Under setting [3], `Cc1ccc(C(=O)n2nc(Nc3ccc(OCCCN(C)C)cc3)nc2N)cc1` [compound 91, 5-amino-3-[4-[3-(dimethylamino)propoxy]phenylamino]-1-(4-(methyl)phenyl)carbonyl-1H-1,2,4-triazole] had an IC50 of 1000 to 10000 nM. In turn, `CN(C)c1ccc(C(=O)n2nc(Nc3ccc(OCCN4CCCCC4)cc3)nc2N)cc1` [compound #2, 5-Amino-1-(4-(dimethylamino)phenyl)carbonyl-3-[4-[2-(piperidin-1-yl)ethoxy]phenylamino]-1H-1,2,4-triazole] yielded an IC50 under setting [3] of less than 1000 nM. In the case of `CC(C)(C)OC(=O)NC1CCOc2ccc(Nc3nc(N)n(C(=O)c4ccc(C(C)(C)C)cc4)n3)cc21` (centres unmarked) [compound 273], the half-inhibitory concentration (IC50) under setting [5] was more than 20000 nM. Regarding `CC(C)(C)Oc1ccc(C(=O)n2nc(Nc3ccc(OCCN4CCCC4)c(F)c3)nc2N)cc1` [compound 305, 5-amino-1-(4-(tert-butoxy)phenyl)carbonyl-3-[3-fluoro-4-[2-(pyrrolidin-1-yl)ethoxy]phenylamino]-1H-1,2,4-triazole], the IC50 under setting [3] was less than 1000 nM. With `CC(C)Oc1ccc(C(=O)n2nc(Nc3ccc4c(c3)OCCO4)nc2N)cc1` [compound 113, 5-amino-3-(1,4-benzodioxan-6-yl)amino-1-(4-(iso-propoxy)phenyl)carbonyl-1H-1,2,4-triazole], the IC50 under setting [2] was 1000 to 10000 nM. For `CN(C)c1cccc(C(=O)n2nc(Nc3ccc(OCCn4ccnc4)cc3)nc2N)c1` [compound 374, 5-amino-1-(3-(dimethylamino)phenyl)carbonyl-3-[4-[2-(imidazol-1-yl)ethoxy]phenylamino]-1H-1,2,4-triazole], the IC50 under setting [3] was 1000 to 10000 nM. In the case of `CCCCOc1ccc(NC(=O)n2nc(Nc3ccc(OCCN4CCCCC4)cc3)nc2N)cc1` [compound 46, 5-amino-N-(4-butoxyphenyl)-3-[4-[2-(piperidin-1-yl)ethoxy]phenylamino]-1H-1,2,4-triazole-1-carboxamide], where the note is “Table 7, Hela cells, Axl antibody cross-linking stimulation, phospho-Akt chemiluminescence”, the IC50 lay in the range of 1000 to 10000 nM. Under setting [3], `Nc1nc(Nc2ccc(OCCN3CCCC3=O)cc2)nn1C(=O)c1ccc(-c2csnn2)cc1` [compound 338, 5-amino-1-(4-(1,2,3-thiadiazol-4-yl)phenyl)carbonyl-3-[4-[2-(pyrrolidin-2-on-1-yl)ethoxy]phenylamino]-1H-1,2,4-triazole] registered an IC50 of 1000 to 10000 nM. Same read-out and setting: for `CC(C)(C)c1ccc(C(=O)n2nc(Nc3cccc(-c4cnco4)c3)nc2N)cc1` [compound 263, 5-amino-1-(4-(tert-butyl)phenyl)carbonyl-3-[3-(1,3-oxazol-5-yl)phenylamino]-1H-1,2,4-triazole] the value was 1000 to 10000 nM.

Take `CC(C)Oc1ccc(C(=O)n2nc(N)nc2Nc2ccc(N3CCOCC3)cc2)cc1` [compound 49, 3-amino-1-(4-(iso-propoxy)phenyl)carbonyl-5-(4-(morpholin-4-yl)phenylamino]-1H-1,2,4-triazole]: the IC50 under setting [4] was more than 20000 nM. For the molecule `CS(=O)(=O)N1CCC(Nc2nc(N)nn2C(=O)c2c(F)cccc2F)CC1` [compound 391, 3-amino-1-(2,6-difluorophenyl)carbonyl-5-(1-methylsulfonylpiperidin-4-yl)amino-1H-1,2,4-triazole], the 50% inhibitory concentration (IC50) (Table 6, Hela cells, Axl antibody cross-linking stimulation, phospho-Akt chemiluminescence) was more than 20000 nM. Molecule `Cc1cccc(NC(=O)n2nc(N)nc2Nc2ccc(OCCN3CCCCC3)cc2)c1` [compound 187, 3-amino-N-(3-(methyl)phenyl)-5-[4-[2-(piperidin-1-yl)ethoxy]phenylamino]-1H-1,2,4-triazole-1-carboxamide] had an IC50 (Table 8, Hela cells, Axl antibody cross-linking stimulation, phospho-Akt chemiluminescence) of 1000 to 10000 nM.

For `Nc1nc(Nc2ccc(OCCN3CCCC3)cc2)nn1C(=O)c1ccc(-c2ccccc2)cc1` [compound 277, 5-amino-1-(4-(phenyl)phenyl)carbonyl-3-[4-[2-(pyrrolidin-1-yl)ethoxy]phenylamino]-1H-1,2,4-triazole], the IC50 under setting [3] was less than 1000 nM. The molecule `CC(C)Oc1ccc(Nc2nc(N)n(C(=O)c3cccc(Cl)c3)n2)cc1` [compound 76, 5-amino-1-(3-(chloro)phenyl)carbonyl-3-[4-(iso-propoxy)phenylamino]-1H-1,2,4-triazole] displayed an IC50 under setting [2] of more than 20000 nM. Under setting [5], `Cc1cccc(C(=O)n2nc(Nc3ccc4ncsc4c3)nc2N)c1` [compound 250, 5-amino-3-(benzothiazol-6-yl)amino-1-(3-methylphenyl)carbonyl-1H-1,2,4-triazole] showed a 50% inhibitory concentration (IC50) of 1000 to 10000 nM. As to `CC(C)Oc1ccc(C(=O)n2nc(Nc3ccc(N4CCN(C)CC4)cc3)nc2N)cc1` [compound 359, 5-amino-1-(4-(iso-propoxy)phenyl)carbonyl-3-[4-(4-methylpiperazin-1-yl)phenylamino]-1H-1,2,4-triazole], under setting [3], the IC50 is less than 1000 nM. Take `Nc1nc(Nc2ccc(OCCN3CCCC3)cc2)nn1C(=O)c1ccc(OC(F)(F)F)cc1` [compound #23, 5-Amino-3-[4-[2-(pyrrolidin-1-yl)ethoxy]phenylamino]-1-(4-(trifluoromethoxy)phenyl)carbonyl-1H-1,2,4-triazole]: the half-inhibitory concentration (IC50) under setting [3] is less than 1000 nM. Under setting [2], `Nc1nc(Nc2ccc3c(c2)OCCO3)nn1C(=O)c1cccc(Cl)c1` [compound 101, 5-amino-1-(3-(chloro)phenyl)carbonyl-3-(1,4-benzodioxan-6-yl)amino-1H-1,2,4-triazole] yielded an IC50 of 1000 to 10000 nM. For `Cc1cccc(C(=O)n2nc(Nc3ccc4oc(COC5CCCCO5)cc4c3)nc2N)c1` (centres unmarked) [compound 130, 5-amino-3-[N-(2-(tetrahydropyran-2-yloxy)methylbenzofuran-5-yl)-amino]-1-(3-(methyl)phenyl)carbonyl-1H-1,2,4-triazole], the 50% inhibitory concentration (IC50) under setting [5] was in the range of 1000 to 10000 nM. `CC(C)(C)Oc1ccc(C(=O)n2nc(Nc3ccc(OCCCN4CCCC4)cc3)nc2N)cc1` [compound #15, 5-Amino-3-[4-[3-(pyrrolidin-1-yl)propoxy]phenylamino]-1-(4-(tert-butoxy)phenyl)carbonyl-1H-1,2,4-triazole]: under setting [3], the IC50 was less than 1000 nM. The molecule `COc1cc(Nc2nc(N)n(C(=O)c3ccc4cc[nH]c4c3)n2)ccc1OCCN1CCCC1` [compound 318, 5-amino-1-(1H-indol-6-yl)carbonyl-3-[3-methoxy-4-[2-(pyrrolidin-1-yl)ethoxy]phenylamino]-1H-1,2,4-triazole] displayed an IC50 under setting [1] of less than 1000 nM.

Usually IC50 stands for the concentration that gives 50% inhibition.
